Where two headings read alike, the source gives them in different places.
Columns and labels:
[1] = cited from earlier work
Procedure: The difference in detectable time in the urine can be explained by the low level of internal exposure (amatoxins in the blood). […] The daily amounts of peptide toxins excreted in urine in beagles without biliary drainage(mg). Time after α-Amanitin β-Amanitin Phallacidin ingestion 20 mg/kg 60 mg/kg 20 mg/kg 60 mg/kg 20 mg/kg 60 mg/kg group group group group group group 0-1d 0.0379 0.0593 0.0156 0.0251 0.0035 0.0088 (97.9%) (92.8%) (99.9%) (94.7%) (94.2%) (76%) 1-2d 0.0388 0.0618 0.01567 0.0255 0.0037 0.0110 (99.995%) (97.5%) (100%) (96.2%) (100%) (93%) 2-3d 0.0002 0.0626 0 0.0260 0 0.0115 (100%) (99.4%) (100%) (98.2%) (100%) (97.3%) 3-4d 0 0.063 ...

[2] = Peptide toxins in the urine of beagles with biliary drainage; type: in vivo, beagle dogs; conditions: for Total (accumulated) amount excreted in urine / percentage of total urine excretion, Total: 0–4 days
Procedure: The study was approved by National Institute of Occupational Health and Poison Control review board for animal experiments. Twenty-four male beagles (age, 8–10 months; weight, 10 ± 1 kg) were obtained from Beijing Institute of Xieerxin Biology Resource (Beijing, China). They were randomly divided into four groups of six animals each: control, biliary drainage, and 20 and 60 mg/kg with biliary drainage groups. The biliary drainage operation was conducted in all groups barring the control group. The dogs were dressed in homemade underwear, coats, and Elizabeth circles for a week to ensure pre-experimental acclimatization (Figure S8a–c). After determining the baseline values for biochemical indicators, the dogs were fasted for 24 h but received water ad libitum. They were anesthetized by intravenous administration of pentobarbital sodium (3%, 1 mL/kg) during the surgery. A temperature of 38–39 °C was maintained with a warming mat. After skin preservation and sterilization, the abdominal cavity was opened through the central abdomen. The abdomen was explored and blunt dissection of the common bile duct was performed (Figure S8d). The common bile duct and its branches were ligated from the intestinal side. A 7.0-Fr drainage catheter (COOK, Bloomington, IN, USA) was percutaneously inserted into the gallbladder, and a medical drainage bag was connected to the drainage catheter coming out of the abdominal cavity. Each opened layer, including the peritoneum, abdominal wall muscle, and skin, was closed with suture. The operative incision was protected with sterile gauze and a bandage, and the dogs were dressed in homemade underwear, coats, and Elizabeth circles. The drainage bag was placed in the pocket of the coat (Figure S8e). After the anesthetic wore off, the dogs were placed in cages, and food and water were provided ad libitum. The operative incision was sterilized with iodophor twice a day until stitches were removed six days after surgery. The drainage bag was replaced every day. On the eighth day after surgery, the 20 and 60 mg/kg with biliary drainage groups were orally administered a lyophilized powder of Amanita exitialis in starch capsules. In control and bile drainage group, the beagle dogs were fed with empty capsules. Immediately after dosing, the animals were placed in their cages, and food and water were provided ad libitum. Dogs were sacrificed with an overdose of sodium pentobarbital at the end of the experiment. All procedures were performed according to the ethical standards of the National Institutes of Health Guide for Animal Welfare and approved by the Institutional Animal Care and Use Committee (EAWE-2017-005).
Peptide toxins in blood and urine samples were analyzed as described previously. Bile samples from Days 0–1, Days 1–2, Days 2–3, and Days 3–4 were collected and stored in medical drainage bags and the bile volume was recorded. Plasma and urine samples were stored at 2–8 °C until analysis for peptide toxins.
UPLC and MS/MS parameters were as described in our previous study. The limit of detection and limit of quantitation of each toxin in the bile were 0.03 mg/kg and 0.5 mg/kg, respectively.

[3] = 20 mg/kg with biliary drainage group
[4] = 60 mg/kg with biliary drainage group
[5] = 1–2 days, 20 mg/kg with biliary drainage group
[6] = 1–2 days, 60 mg/kg with biliary drainage group
[7] = 2–3 days, 20 mg/kg with biliary drainage group
[8] = 2–3 days, 60 mg/kg with biliary drainage group
[9] = 3-4d, 20 mg/kg with biliary drainage group
[10] = 3-4d, 60 mg/kg with biliary drainage group
[11] = 3–4 days, 20 mg/kg with biliary drainage group
[12] = 3–4 days, 60 mg/kg with biliary drainage group

CC[C@H](C)[C@@H]1NC(=O)CNC(=O)[C@@H]2Cc3c([nH]c4cc(O)ccc34)[S@+]([O-])C[C@H](NC(=O)CNC1=O)C(=O)N[C@@H](CC(=O)O)C(=O)N1C[C@H](O)C[C@H]1C(=O)N[C@@H]([C@@H](C)[C@@H](O)CO)C(=O)N2 [β-amanitin]
daily amount excreted in urine, without biliary drainage ([1]; 0-1d, 20 mg/kg group): 0.0156 mg
percentage in parentheses, urine, without biliary drainage ([1]; 0-1d, 20 mg/kg group): 99.9%
daily amount excreted in urine, without biliary drainage ([1]; 0-1d, 60 mg/kg group): 0.0251 mg
percentage in parentheses, urine, without biliary drainage ([1]; 0-1d, 60 mg/kg group): 94.7%
Accumulative amount excreted in urine, without biliary drainage ([1]; 20 mg/kg group): 0.0157 mg
percentage in parentheses, Accumulative amount, urine, without biliary drainage ([1]; 20 mg/kg group): 100%
Accumulative amount excreted in urine, without biliary drainage ([1]; 20 mg/kg group, listed as β-Amanitin): 0.01567 mg
percentage in parentheses, Accumulative amount, urine, without biliary drainage ([1]; 60 mg/kg group): 100%
percentage in parentheses, urine, without biliary drainage ([1]; 1-2d, 20 mg/kg group): 100%
daily amount excreted in urine, without biliary drainage ([1]; 1-2d, 60 mg/kg group): 0.0255 mg
percentage in parentheses, urine, without biliary drainage ([1]; 1-2d, 60 mg/kg group): 96.2%
daily amount excreted in urine, without biliary drainage ([1]; 2-3d, 20 mg/kg group): 0 mg
percentage in parentheses, urine, without biliary drainage ([1]; 2-3d, 20 mg/kg group): 100%
daily amount excreted in urine, without biliary drainage ([1]; 2-3d, 60 mg/kg group): 0.0260 mg
percentage in parentheses, urine, without biliary drainage ([1]; 2-3d, 60 mg/kg group): 98.2%
daily amount excreted in urine, without biliary drainage ([1]; 3-4d, 20 mg/kg group): 0 mg
percentage in parentheses, urine, without biliary drainage ([1]; 3-4d, 20 mg/kg group): 100%
daily amount excreted in urine, without biliary drainage ([1]; 3-4d, 60 mg/kg group): 0.0264 mg
percentage in parentheses, urine, without biliary drainage ([1]; 3-4d, 60 mg/kg group): 100%
detection rate of peptide toxins in urine ([2]; 0-1 d, 20 mg/kg with biliary drainage group): 100%
detection rate of peptide toxins in urine ([2]; 0-1 d, 60 mg/kg with biliary drainage group): 100%
daily amount excreted in urine ([2]; 0–1 days, 20 mg/kg with biliary drainage group): 0.0050 mg
percentage of total urine excretion excreted daily ([2]; 0–1 days, 20 mg/kg with biliary drainage group, 20 mg/kg): more than 90%
percentage of total urine excretion excreted daily ([2]; 0–1 days, 20 mg/kg with biliary drainage group, listed as β-Amanitin, 20 mg/kg): 93.9%
daily amount excreted in urine ([2]; 0–1 days, 60 mg/kg with biliary drainage group): 0.0065 mg
percentage of total urine excretion excreted daily ([2]; 0–1 days, 60 mg/kg with biliary drainage group, 60 mg/kg): more than 90%
percentage of total urine excretion excreted daily ([2]; 0–1 days, 60 mg/kg with biliary drainage group, listed as β-Amanitin, 60 mg/kg): 91.4%
Total (accumulated) amount excreted in urine [2, 3]: 0.0055 mg
percentage of total urine excretion, Total [2, 3]: 100%
Total (accumulated) amount excreted in urine [2, 4]: 0.0068 mg
percentage of total urine excretion, Total [2, 4]: 100%
time within which toxin was detected in urine [2, 3]: two
time within which toxin was detected in urine [2, 4]: two
detection rate of peptide toxins in urine ([2]; 1-2 d, 20 mg/kg with biliary drainage group): 50%
detection rate of peptide toxins in urine ([2]; 1-2 d, 60 mg/kg with biliary drainage group): 83%
daily amount excreted in urine [2, 5]: 0.0005 mg
percentage of total urine excretion excreted daily [2, 5]: 6.1%
daily amount excreted in urine [2, 6]: 0.0003 mg
percentage of total urine excretion excreted daily [2, 6]: 8.6%
detection rate of peptide toxins in urine ([2]; 2-3 d, 20 mg/kg with biliary drainage group): 0%
toxin content in urine ([2]; 2-3d, 20 mg/kg with biliary drainage group, mean ± SD): 0 µg/L
detection rate of peptide toxins in urine ([2]; 2-3 d, 60 mg/kg with biliary drainage group): 0%
toxin content in urine ([2]; 2-3d, 60 mg/kg with biliary drainage group, mean ± SD): 0 µg/L
daily amount excreted in urine [2, 7]: 0(0%) mg
percentage of total urine excretion excreted daily [2, 7]: 0(0%)
daily amount excreted in urine [2, 8]: 0(0%) mg
percentage of total urine excretion excreted daily [2, 8]: 0(0%)
detection rate of peptide toxins in urine [2, 9]: 0%
toxin content in urine [2, 9]: 0 µg/L
detection rate of peptide toxins in urine [2, 10]: 0%
toxin content in urine [2, 10]: 0 µg/L
daily amount excreted in urine [2, 11]: 0(0%) mg
percentage of total urine excretion excreted daily [2, 11]: 0(0%)
daily amount excreted in urine [2, 12]: 0(0%) mg
percentage of total urine excretion excreted daily [2, 12]: 0(0%)
share of total urine excretion in the 0–2-day urine ([2]; beagles with biliary drainage, both dose groups): more than 95%

— paper PMC6024615, “Effect of Biliary Drainage on the Toxicity and Toxicokinetics of Amanita exitialis in Beagles” (Toxins, 2018)
